In patent publication US20240426832A1, “METHODS OF IDENTIFYING COMPOUNDS FOR INDUCING PROTEIN-PROTEIN INTERACTION” (Oncopia Therapeutics, Inc. d/b/a/ SK Life Science Labs, priority 2023, published 2024):

Key:
IKZF2-CRBN [1] = target: T1, IKZF2-CRBN (Homo sapiens, UniProt Q96SW2+Q9UKS7); assay: glue screening assay (tripartite split-GFP fluorescence), GFP11-tagged IKZF2 and GFP10-tagged CRBN; format: binding; settings: protein mix GFP1-9, GFP11-IKZF2, IKZF2-GFP11, GFP10-CRBN, time-course, FIG. 5
Description: In another version of the assay, the glue screening assay mixture is assembled in a volume of 2 μL assay buffer (50 mM HEPES buffer, pH 7.5, 150 mM KCl, 4 mM DTT, 0.1 mg/mL BSA, 0.25 mM octyl-beta-glucopyranoside, 5% glycerol with 0.3 μg GFP1-9, 0.05 μg of GFP11-tagged IKZF2, and 0.3 μg GFP10-tagged CRBN. Various variations of the buffer provide consistent signal in this assay (0.1-1 mg/mL BSA, 0-10% glycerol, 0-1 mM octyl-beta-glucopyranoside). Similar to the previous version, two different versions of GFP11-tagged IKZF2 are tested with GFP11 fused to N- and C-termini of IKZF2 (GFP11-IKZF2 and IKZF2-GFP11, respectively). Likewise, two different versions of GFP10-tagged CRBN are tested: GFP10 fused to the N-terminus of CRBN (GFP10-CRBN) and GFP10 fused to the C-terminus of CRBN (CRBN-GFP10). Concentrations correspond to 5 μM of GFP (1-9), 1.25 μM of each of the IKZF2 constructs and 0.5 μM of each of the two CRBN constructs. Concentrations of the IKZF2 and CRBN proteins were optimized for best signal to background by titrating the proteins against each other.
For primary screens, these five different proteins (GFP1-9, GFP11-IKZF2, IKZF2-GFP11, GFP10-CRBN, and CRBN-GFP10) are combined in the assay buffer and added to the plates containing different compound pools. […]

IKZF2-CRBN [2] = target: T1, IKZF2-CRBN; settings: stated as known; cited from earlier work
RBM39 and DCAF15 = RBM39 and DCAF15 (Homo sapiens, UniProt Q14498+Q66K64); settings: stated as known; cited from earlier work
RBM39 and DCAF15, sequence (Q14498 whole entry, species assumed): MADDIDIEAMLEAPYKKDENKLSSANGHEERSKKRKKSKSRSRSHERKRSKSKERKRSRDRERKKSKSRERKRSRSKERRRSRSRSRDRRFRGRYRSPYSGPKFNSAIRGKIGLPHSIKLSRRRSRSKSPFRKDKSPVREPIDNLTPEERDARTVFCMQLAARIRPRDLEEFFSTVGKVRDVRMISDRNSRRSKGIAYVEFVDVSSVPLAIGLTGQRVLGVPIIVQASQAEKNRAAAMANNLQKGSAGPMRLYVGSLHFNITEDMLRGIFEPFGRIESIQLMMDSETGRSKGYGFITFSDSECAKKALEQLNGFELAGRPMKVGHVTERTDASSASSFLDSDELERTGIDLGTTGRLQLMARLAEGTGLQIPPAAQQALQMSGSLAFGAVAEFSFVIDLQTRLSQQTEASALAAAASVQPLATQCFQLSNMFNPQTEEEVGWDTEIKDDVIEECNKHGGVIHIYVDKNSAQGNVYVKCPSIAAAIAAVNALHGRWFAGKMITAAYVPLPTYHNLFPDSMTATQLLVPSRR
RBM39 and DCAF15, sequence (Q66K64 whole entry, species assumed): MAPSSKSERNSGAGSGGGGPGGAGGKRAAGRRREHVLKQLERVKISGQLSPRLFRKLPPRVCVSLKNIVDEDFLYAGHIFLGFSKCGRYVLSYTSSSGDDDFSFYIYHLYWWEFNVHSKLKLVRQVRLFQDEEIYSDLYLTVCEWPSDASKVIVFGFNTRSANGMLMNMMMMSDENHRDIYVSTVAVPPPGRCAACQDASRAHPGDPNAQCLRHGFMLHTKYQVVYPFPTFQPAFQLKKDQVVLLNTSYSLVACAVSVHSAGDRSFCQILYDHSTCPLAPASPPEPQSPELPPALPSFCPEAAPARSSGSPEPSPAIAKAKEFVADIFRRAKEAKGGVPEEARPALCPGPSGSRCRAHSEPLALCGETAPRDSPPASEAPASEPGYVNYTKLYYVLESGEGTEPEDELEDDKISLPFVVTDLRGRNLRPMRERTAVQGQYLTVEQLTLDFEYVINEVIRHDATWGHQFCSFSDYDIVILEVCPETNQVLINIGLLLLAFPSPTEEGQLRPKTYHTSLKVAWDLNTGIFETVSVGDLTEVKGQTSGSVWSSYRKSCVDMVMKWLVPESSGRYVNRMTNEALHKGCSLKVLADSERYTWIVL

T1 sequence (Q9UKS7 whole entry, the tested form may be a part): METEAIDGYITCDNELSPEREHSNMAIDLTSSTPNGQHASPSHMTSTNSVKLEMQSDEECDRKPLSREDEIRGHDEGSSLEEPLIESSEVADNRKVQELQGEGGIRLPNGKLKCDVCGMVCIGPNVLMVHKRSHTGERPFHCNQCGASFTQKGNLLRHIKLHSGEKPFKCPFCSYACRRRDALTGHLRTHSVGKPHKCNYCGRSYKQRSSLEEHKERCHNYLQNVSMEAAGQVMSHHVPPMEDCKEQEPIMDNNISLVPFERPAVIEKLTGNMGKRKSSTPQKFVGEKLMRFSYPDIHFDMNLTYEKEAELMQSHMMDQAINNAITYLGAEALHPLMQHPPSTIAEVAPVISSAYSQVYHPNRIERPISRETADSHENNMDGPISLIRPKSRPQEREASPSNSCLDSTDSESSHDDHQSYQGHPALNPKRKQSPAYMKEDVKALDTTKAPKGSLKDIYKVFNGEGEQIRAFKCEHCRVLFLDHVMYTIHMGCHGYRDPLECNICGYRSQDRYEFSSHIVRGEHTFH
T1 sequence (Q96SW2 whole entry, the tested form may be a part): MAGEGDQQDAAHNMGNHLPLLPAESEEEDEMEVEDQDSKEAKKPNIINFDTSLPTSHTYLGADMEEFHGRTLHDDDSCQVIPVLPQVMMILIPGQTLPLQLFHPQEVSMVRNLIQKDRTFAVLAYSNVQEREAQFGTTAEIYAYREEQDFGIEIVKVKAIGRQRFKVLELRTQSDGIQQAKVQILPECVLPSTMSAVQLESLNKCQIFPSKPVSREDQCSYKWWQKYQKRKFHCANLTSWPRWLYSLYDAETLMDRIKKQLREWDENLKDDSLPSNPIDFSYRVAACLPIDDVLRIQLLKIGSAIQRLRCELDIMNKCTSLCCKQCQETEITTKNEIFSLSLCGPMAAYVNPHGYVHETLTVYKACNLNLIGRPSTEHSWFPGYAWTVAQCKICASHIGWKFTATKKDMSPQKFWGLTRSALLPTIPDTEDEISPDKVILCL

Structure (SMILES) | GFP signal over time compared to the DMSO control (IKZF2-CRBN [1]) | glue activity for IKZF2-CRBN protein pair (known) (IKZF2-CRBN [2]) | glue activity for protein pair RBM39 and DCAF15 (known) (RBM39 and DCAF15)
Nc1ccc(S(=O)(=O)Nc2cnc3c(Cl)cccc3n2)cc1 | indistinguishable from the DMSO control | devoid of glue activity | known glues
NS(=O)(=O)c1ccc(S(=O)(=O)Nc2cccc3c(Cl)c[nH]c23)cc1 [Indisulam] | indistinguishable from the DMSO control | devoid of glue activity | known glues
